Assay results reported in patent publication US6387427B1, “Method of preservation of a food product” (Nestec S.A., priority 2000, dated 2002).

Legend:
Type in all cases: cell-based
Bacillus cereus = test: Challenge test in BHI broth, single strain; conditions: for Bacterial growth (optical density 550 nm after 12 days): pH 5.6, 12° C.
Protocol: (§1) Commercial sodium acetate (Sigma) and the freeze-dried fermentate of the invention (pH 5.0) were tested in Brain Heart Infusion broth (BHI), using single and cocktail tests. BHI was added with:
(§2) (a) commercial sodium acetate at final concentrations of 0.25 and 0.5%;
(§3) (b) freeze dried fermentate (pH 5.0) at final concentrations of sodium acetate of 0.25 to 0.5%; and,
(§4) (c) a control sample consisted of BHI broth without sodium acetate.
(§5) For first samples, the pH of BHI broth with or without sodium acetate was adjusted to 5.6 with HCl (10%) and the samples filter-sterilized ([…], Millipore). For comparative samples, the pH was controlled at 7.0 and the sample filtered-sterilized.
(§6) The freeze-dried product was evaluated for its inhibitory actions against Gram-negative Gram-positive bacteria. Twenty-mL samples were inoculated with 10^4-10^5 cfu/mL of L. monocytogenes, B. cereus, E. coli, or S. typhimurium alone and combined. The samples were incubated at two conditions: at 30° C. for 24 h, and at 12° C. for 2 weeks.
(§7) The control samples consisted of samples with and without commercial sodium acetate.

Escherichia coli = test: Challenge test in BHI broth, single strain; conditions: for Bacterial growth (optical density 550 nm after 12 days): pH 5.6, 12° C.
Protocol: as §1, §2, §3, §4, §5, §6, §7

Listeria monocytogenes = test: Challenge test in BHI broth, single strain; conditions: for Bacterial growth (optical density 550 nm after 12 days): pH 5.6, 12° C.
Protocol: as §1, §2, §3, §4, §5, §6, §7

Salmonella typhimurium = test: Challenge test in BHI broth, single strain; conditions: for Bacterial growth (optical density 550 nm after 12 days): pH 5.6, 12° C.
Protocol: as §1, §2, §3, §4, §5, §6, §7

[1] = tested on: Gram-negative bacterial cocktail (3 E. Coli strains and 3 Salmonella strains); test: Challenge test in mashed potato, Gram-negative cocktail; conditions: 12° C.; for Microbial growth: mashed potato pH 5.6, 0.5%
Protocol: (§8) Five hundred grams of mashed potato were added to 500 g of distilled water and mixed thoroughly. The pH of the mixture was adjusted to pH 5.6 with 1N HCl. Three separate samples of 300 g of mashed potato were added with respectively, 0.5 % commercial sodium acetate, 0.5% of freeze dried fermentate and a control with no acetate. The three mashed potato samples (respectively with commercial acetate, fermentate and control) were heated at 70° C. for 5 min in a microwave and then dispatched aseptically in separate aliquots of 30 g each. The pH of all samples was checked before inoculation. Triplicate samples of each the three mashed potato aliquots were inoculated with 10^3-10^4 colony forming units per gram (cfu/g) of Gram-negative bacterial cocktail (3 E. Coli strains and 3 Salmonella strains), or L. monocytogenes cocktail and incubated at 12° C. for 2 weeks. Periodically, samples were withdrawn and bacterial counts were enumerated using BHI agar and incubated at 30° C. for 48 hours.
To confirm the effectiveness of the two sources of sodium acetate against Gram-negative bacteria, a cocktail of Gram-negative bacteria was used in a challenge experiment in mashed potato.

[2] = tested on: Cocktail (L. monocytogenes, Bacillus cereus, Escherichia coli, S. typhimurium); test: Challenge test in BHI broth, bacterial cocktail; conditions: for Bacterial growth (optical density 550 nm after 12 days): pH 5.6, 12° C.
Protocol: as §1, §2, §3, §4, §5, §6, §7
An additional challenge test was carried out on the bacterial cocktail strains of Listeria monocytogenes, Escheriachia coli, Bacillus cereus, and Salmonella typhimurium.

[3] = tested on: Listeria monocytogenes strains; test: Challenge test in mashed potato, L. monocytogenes cocktail; conditions: for Microbial growth: mashed potato pH 5.6, 0.5%, 12° C.
Protocol: as §8
To confirm the effectiveness of the two sources of sodium acetate against Listeria monocytogenes strains, another challenge experiment in mashed potato was performed.

[4] = tested on: challenge bacteria (L. monocytogenes, B. cereus, E. coli, S. typhimurium); test: Challenge test in BHI broth, challenge bacteria overall; conditions: neutral pH (6.5 to 7.0) and 30° C.
Protocol: as §1, §2, §3, §4, §5, §6, §7

[5] = 0.25% sodium acetate, pH 5.6, 30° C.
[6] = 0.25% sodium acetate, pH 7.0, 30° C.
[7] = 0.5% sodium acetate, pH 5.6, 30° C.
[8] = 0.5% sodium acetate, pH 7.0, 30° C.

Structure (SMILES): CC(=O)[O-].[Na+] [C, sodium acetate]
- Bacterial growth (optical density 550 nm after 12 days) (Bacillus cereus; 0.25% sodium acetate): 0.017
- Bacterial growth (optical density 550 nm after 24 hrs) (Bacillus cereus; [5]): 0.068
- Bacterial growth (optical density 550 nm after 24 hrs) (Bacillus cereus; [6]): 0.325
- Bacterial growth (optical density 550 nm after 12 days) (Bacillus cereus; 0.5% sodium acetate): 0.017
- Bacterial growth (optical density 550 nm after 24 hrs) (Bacillus cereus; [7]): 0.042
- Bacterial growth (optical density 550 nm after 24 hrs) (Bacillus cereus; [8]): 0.315
- Inhibitory effect on growth (in words) (Bacillus cereus; pH 5.6 and below): exhibited inhibitory effects
- Bacterial growth (optical density 550 nm after 12 days) (Escherichia coli; 0.25% sodium acetate): 0.017
- Bacterial growth (optical density 550 nm after 24 hrs) (Escherichia coli; [5]): 0.231
- Bacterial growth (optical density 550 nm after 24 hrs) (Escherichia coli; [6]): 0.589
- Bacterial growth (optical density 550 nm after 12 days) (Escherichia coli; 0.5% sodium acetate): 0.013
- Bacterial growth (optical density 550 nm after 24 hrs) (Escherichia coli; [7]): 0.099
- Bacterial growth (optical density 550 nm after 24 hrs) (Escherichia coli; [8]): 0.587
- Inhibitory effect on growth (in words) (Escherichia coli; pH 5.6 and below): exhibited inhibitory effects
- Bacterial growth (optical density 550 nm after 12 days) (Listeria monocytogenes; 0.25% sodium acetate): 0.212
- Bacterial growth (optical density 550 nm after 24 hrs) (Listeria monocytogenes; [5]): 0.216
- Bacterial growth (optical density 550 nm after 24 hrs) (Listeria monocytogenes; [6]): 0.429
- Bacterial growth (optical density 550 nm after 12 days) (Listeria monocytogenes; 0.5% sodium acetate): 0.220
- Bacterial growth (optical density 550 nm after 24 hrs) (Listeria monocytogenes; [7]): 0.063
- Bacterial growth (optical density 550 nm after 24 hrs) (Listeria monocytogenes; [8]): 0.399
- Bacterial growth (optical density 550 nm after 12 days) (Salmonella typhimurium; 0.25% sodium acetate): 0.010
- Bacterial growth (optical density 550 nm after 24 hrs) (Salmonella typhimurium; [5]): 0.089
- Bacterial growth (optical density 550 nm after 24 hrs) (Salmonella typhimurium; [6]): 0.645
- Bacterial growth (optical density 550 nm after 12 days) (Salmonella typhimurium; 0.5% sodium acetate): 0.013
- Bacterial growth (optical density 550 nm after 24 hrs) (Salmonella typhimurium; [7]): 0.020
- Bacterial growth (optical density 550 nm after 24 hrs) (Salmonella typhimurium; [8]): 0.600
- Inhibitory effect on growth (in words) (Salmonella typhimurium; pH 5.6 and below): exhibited inhibitory effects
- Microbial growth ([1]; day 0): 4.6 Log10 cfu/g
- Microbial growth ([1]; day 2): 4.6 Log10 cfu/g
- Microbial growth ([1]; day 5): 4.5 Log10 cfu/g
- Microbial growth ([1]; day 7): 4.5 Log10 cfu/g
- Microbial growth ([1]; day 9): 4.1 Log10 cfu/g
- Inhibitory effectiveness on growth of Gram-negative cocktail (in words) ([1]; mashed potato): inhibitory effectiveness
- Bacterial growth (optical density 550 nm after 12 days) ([2]; 0.25% sodium acetate): 0.287
- Bacterial growth (optical density 550 nm after 12 days) ([2]; 0.5% sodium acetate): 0.266
- Inhibition of the bacterial cocktail (in words) ([2]; pH 5.6 and at 2° C. (so in the source), both concentrations): failed to inhibit
- Microbial growth ([3]; day 0): 3.1 Log10 cfu/g
- Microbial growth ([3]; day 2): 4.4 Log10 cfu/g
- Microbial growth ([3]; day 5): 4.3 Log10 cfu/g
- Microbial growth ([3]; day 7): 4.9 Log10 cfu/g
- Microbial growth ([3]; day 14): 7.5 Log10 cfu/g
- Delay of growth of Listeria monocytogenes (in words) ([3]; mashed potato, 14 days of incubation at 12° C.): unable to delay the growth of this organism for more than a week
- Inhibition of the challenge bacteria (in words) [4]: neither commercial sodium acetate nor the fermentate inhibit
